Marks after values point to notes of the source that are not given here.
What was measured:
Type in all cases: cell-based
[1] = molecular target: T1, CB2 (Homo sapiens, UniProt P34972, Q63R); assay: β-arrestin 1 translocation real-time BRET assay; settings: for EC50: pEC50, β-arrestin 1 translocation to CB2, HEK 293 cells; for pEC50, β-arrestin 1 translocation to CB2: HEK 293 cells
[2] = molecular target: T1, CB2; assay: β-arrestin 2 translocation real-time BRET assay, wild-type CB2; settings: for Span, β-arrestin 2 translocation to CB2: HEK 293 cells
[3] = molecular target: T1, CB2; assay: as above; settings: for pEC50, β-arrestin 2 translocation to CB2: HEK 293 cells
[4] = molecular target: T1, CB2; assay: β-arrestin 1 translocation real-time BRET assay; settings: HEK 293 cells

T1 sequence (P34972 whole entry Q63R): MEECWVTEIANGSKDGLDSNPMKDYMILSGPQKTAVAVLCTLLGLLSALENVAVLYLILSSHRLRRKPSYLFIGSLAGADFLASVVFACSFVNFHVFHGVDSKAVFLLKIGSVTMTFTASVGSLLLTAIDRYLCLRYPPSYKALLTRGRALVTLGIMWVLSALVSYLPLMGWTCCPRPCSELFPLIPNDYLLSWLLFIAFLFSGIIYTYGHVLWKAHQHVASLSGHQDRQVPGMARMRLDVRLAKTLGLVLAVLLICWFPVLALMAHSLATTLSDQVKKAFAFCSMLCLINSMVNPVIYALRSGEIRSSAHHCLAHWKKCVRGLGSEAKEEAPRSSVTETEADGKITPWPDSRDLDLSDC

Compound: CCCCC/C=C\C/C=C\C/C=C\C/C=C\CCCC(=O)OC(CO)CO [2-AG, 2-Arachidonoylglycerol]
- EC50 ([1]; coexpression of GRK1): 3.24 µM
- EC50 ([1]; coexpression of GRK2): 2.29 µM
- EC50 ([1]; coexpression of GRK3): 2 µM
- EC50 ([1]; coexpression of GRK4): 2.88 µM
- EC50 ([1]; coexpression of GRK5): 3.63 µM
- EC50 ([1]; coexpression of GRK6): 3.31 µM
- EC50 ([1]; mock (no GRK)): 3.55 µM
- Span, β-arrestin 2 translocation to CB2 ([2]; coexpression of GRK1, Table 2): 198.6 (8.08) ΔBRET.s
- Span, β-arrestin 2 translocation to CB2 ([2]; coexpression of GRK2, Table 2): 165.5 (10.92) ^* ΔBRET.s
- Span, β-arrestin 2 translocation to CB2 ([2]; coexpression of GRK3, Table 2): 164.7 (9.83) ^* ΔBRET.s
- Span, β-arrestin 2 translocation to CB2 ([2]; coexpression of GRK4, Table 2): 191.3 (6.31) ΔBRET.s
- Span, β-arrestin 2 translocation to CB2 ([2]; coexpression of GRK5, Table 2): 157.1 (4.07) ^* ΔBRET.s
- Span, β-arrestin 2 translocation to CB2 ([2]; coexpression of GRK6, Table 2): 158.6 (6.39) ^* ΔBRET.s
- Span, β-arrestin 2 translocation to CB2 ([2]; mock (no GRK), Table 2): 204.9 (14.67) ΔBRET.s
- lowering of efficacy of β-arrestin 2 translocation by GRK coexpression ([2]; coexpression of GRK2, GRK3 and GRK5 versus mock): 10–20%
- EC50 ([3]; pEC50, β-arrestin 2 translocation to CB2, HEK 293 cells, mock (no GRK), Table 2): 2.29 µM
- Span, β-arrestin 1 translocation to CB2 ([4]; coexpression of GRK1): 83.57 (2.82) ^* ΔBRET.s
- Span, β-arrestin 1 translocation to CB2 ([4]; coexpression of GRK2): 71.73 (3.39) ^* ΔBRET.s
- Span, β-arrestin 1 translocation to CB2 ([4]; coexpression of GRK3): 68.57 (2.99) ^* ΔBRET.s
- Span, β-arrestin 1 translocation to CB2 ([4]; coexpression of GRK4): 62.00 (2.72) ΔBRET.s
- Span, β-arrestin 1 translocation to CB2 ([4]; coexpression of GRK5): 65.96 (1.69) ^* ΔBRET.s
- Span, β-arrestin 1 translocation to CB2 ([4]; coexpression of GRK6): 74.27 (4.00) ^* ΔBRET.s
- Span, β-arrestin 1 translocation to CB2 ([4]; mock (no GRK)): 56.14 (1.52) ΔBRET.s

Compound: COC(=O)[C@@H](NC(=O)c1nn(Cc2ccc(F)cc2)c2ccccc12)C(C)C [AMB-FUBINACA]
- pEC50, β-arrestin 1 translocation to CB2 ([1]; coexpression of GRK1): 7.97 (0.13)
- pEC50, β-arrestin 1 translocation to CB2 ([1]; coexpression of GRK2): 8.16 (0.09)
- pEC50, β-arrestin 1 translocation to CB2 ([1]; coexpression of GRK3): 8.26 (0.07) ^*
- pEC50, β-arrestin 1 translocation to CB2 ([1]; coexpression of GRK4): 7.98 (0.18)
- pEC50, β-arrestin 1 translocation to CB2 ([1]; coexpression of GRK5): 7.97 (0.11)
- pEC50, β-arrestin 1 translocation to CB2 ([1]; coexpression of GRK6): 8.01 (0.18)
- pEC50, β-arrestin 1 translocation to CB2 ([1]; mock (no GRK)): 7.94 (0.10)
- β-arrestin 1 translocation to CB2 (in words) ([1]; absence of exogenous GRKs): submaximal translocation
- Span, β-arrestin 2 translocation to CB2 ([2]; coexpression of GRK1, Table 2): 134.2 (11.15) ΔBRET.s
- Span, β-arrestin 2 translocation to CB2 ([2]; coexpression of GRK2, Table 2): 123.2 (9.45) ΔBRET.s
- Span, β-arrestin 2 translocation to CB2 ([2]; coexpression of GRK3, Table 2): 119.0 (9.10) ΔBRET.s
- Span, β-arrestin 2 translocation to CB2 ([2]; coexpression of GRK4, Table 2): 126.6 (9.03) ΔBRET.s
- Span, β-arrestin 2 translocation to CB2 ([2]; coexpression of GRK5, Table 2): 114.6 (5.98) ΔBRET.s
- Span, β-arrestin 2 translocation to CB2 ([2]; coexpression of GRK6, Table 2): 125.8 (10.37) ΔBRET.s
- Span, β-arrestin 2 translocation to CB2 ([2]; mock (no GRK), Table 2): 123.9 (8.36) ΔBRET.s
- pEC50, β-arrestin 2 translocation to CB2 ([3]; coexpression of GRK1, Table 2): 8.03 (0.06)
- pEC50, β-arrestin 2 translocation to CB2 ([3]; coexpression of GRK2, Table 2): 8.28 (0.05) ^*
- pEC50, β-arrestin 2 translocation to CB2 ([3]; coexpression of GRK3, Table 2): 8.17 (0.11)
- pEC50, β-arrestin 2 translocation to CB2 ([3]; coexpression of GRK4, Table 2): 8.13 (0.03)
- pEC50, β-arrestin 2 translocation to CB2 ([3]; coexpression of GRK5, Table 2): 8.07 (0.07)
- pEC50, β-arrestin 2 translocation to CB2 ([3]; coexpression of GRK6, Table 2): 8.12 (0.04)
- pEC50, β-arrestin 2 translocation to CB2 ([3]; mock (no GRK), Table 2): 8.15 (0.06)
- β-arrestin 2 translocation to CB2 (in words) ([3]; absence of exogenous GRKs): submaximal translocation
- Span, β-arrestin 1 translocation to CB2 ([4]; coexpression of GRK1): 47.12 (3.44) ^* ΔBRET.s
- Span, β-arrestin 1 translocation to CB2 ([4]; coexpression of GRK2): 45.12 (2.90) ^* ΔBRET.s
- Span, β-arrestin 1 translocation to CB2 ([4]; coexpression of GRK3): 46.69 (1.39) ^* ΔBRET.s
- Span, β-arrestin 1 translocation to CB2 ([4]; coexpression of GRK4): 35.06 (2.32) ΔBRET.s
- Span, β-arrestin 1 translocation to CB2 ([4]; coexpression of GRK5): 38.17 (1.55) ΔBRET.s
- Span, β-arrestin 1 translocation to CB2 ([4]; coexpression of GRK6): 44.72 (3.21) ^* ΔBRET.s
- Span, β-arrestin 1 translocation to CB2 ([4]; mock (no GRK)): 29.34 (2.43) ΔBRET.s
